We go through 19 compounds from patent publication US12466831B2, “Substituted amino triazolopyrimidine and amino triazolopyrazine adenosine receptor antagonists, pharmaceutical compositions and their use” (Merck Sharp & Dohme LLC, priority 2018, dated 2025).

Usually IC50 stands for the point on the concentration scale where inhibition reaches its midpoint. A higher IC50 goes with lower potency.

In assay [1] the target is T1, human A2a adenosine receptor (Homo sapiens, UniProt P29274).
T1 construct: purchased Perkin Elmer RBHA2aM400UA; host or cells: HEK293 or CHO cells (recombinant expression)
T1 sequence (P29274 whole entry): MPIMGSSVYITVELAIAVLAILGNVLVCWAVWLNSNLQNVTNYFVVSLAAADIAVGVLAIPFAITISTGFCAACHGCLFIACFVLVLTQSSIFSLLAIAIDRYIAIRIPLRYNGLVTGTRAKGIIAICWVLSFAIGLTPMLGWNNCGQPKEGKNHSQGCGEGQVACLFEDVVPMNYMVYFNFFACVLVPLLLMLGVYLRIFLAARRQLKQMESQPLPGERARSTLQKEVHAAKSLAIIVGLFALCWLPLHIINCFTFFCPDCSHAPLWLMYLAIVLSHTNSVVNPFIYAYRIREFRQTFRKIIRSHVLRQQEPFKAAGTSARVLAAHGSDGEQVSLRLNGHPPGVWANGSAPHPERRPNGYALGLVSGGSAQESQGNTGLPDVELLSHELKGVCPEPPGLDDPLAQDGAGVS
Put plainly: A2a binding affinity using radioligand binding, Method (A). Particulars: Method (A): [3H]SCH58261 filtration binding, membranes expressing human A2a. In outline: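 Filtration binding used human A2a membranes from HEK293 or CHO cells, preincubated with compound 15–30 min. [3H]SCH58261 (diluted to 4 nM) was then added in Tris pH 7.4, MgCl2, Tween20 buffer, with 60 min at room temperature. Non-specific binding was defined by 1 μM ZM241385, and IC50 came from a 4-parameter logistic fit.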

In assay [2] the target is T2, human A2b adenosine receptor (Homo sapiens, UniProt P29275).
T2 construct: purchased Perkin Elmer ES-013-C; host or cells: HEK293 cells recombinantly expressing the receptor; membranes made from them
T2 sequence (P29275 1-332): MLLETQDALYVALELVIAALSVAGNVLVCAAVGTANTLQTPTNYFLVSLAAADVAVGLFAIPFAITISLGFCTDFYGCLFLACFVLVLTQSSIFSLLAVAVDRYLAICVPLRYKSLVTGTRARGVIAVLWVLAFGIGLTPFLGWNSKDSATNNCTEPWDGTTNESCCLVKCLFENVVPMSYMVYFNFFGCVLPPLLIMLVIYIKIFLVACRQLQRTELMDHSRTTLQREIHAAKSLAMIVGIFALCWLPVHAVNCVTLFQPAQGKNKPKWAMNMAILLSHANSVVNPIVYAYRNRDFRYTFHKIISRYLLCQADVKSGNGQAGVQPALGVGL
The assay can be described thus: A2b binding affinity, radioligand filtration binding assay. Particulars: tritiated proprietary A2b antagonist, HEK293 membranes expressing human A2b. An excerpt: Method (A) describes the procedure used to measure A2a binding affinity using radioligand binding. Method (B) describes the procedure used to measure A2a binding affinity using SPA technology. The method used to measure A2b binding affinity is also described below. The method used to determine the A2a IC50 value reported for each compound in the table is indicated next to the reported value. The A2b IC50 value measured using the A2b binding affinity assay is shown in the table next to the compound under the corresponding A2a value.
Measurement of A2b Binding Affinity
The reported affinity of the compounds of the invention for the human A2b adenosine receptor was determined experimentally using a radioligand filtration binding assay. This assay measures the amount of binding of a tritiated proprietary A2b receptor antagonist, in the presence and absence of a compound of the invention, to membranes made from HEK293 cells recombinantly expressing the human A2b adenosine receptor (Perkin Elmer, Cat. No. ES-013-C).
148 μL (135 μg/mL) membranes and 2 μL test compounds were transferred to individual wells of a 96-well polypropylene assay plate and incubated for 15 to 30 minutes at room temperature with agitation. Tritiated radioligand was diluted to a concentration of 14 nM in assay buffer (phosphate buffered saline without Magnesium and Calcium, pH 7.4; GE Healthcare Life Sciences, Cat. No. SH30256.01) and then 50 μL of the solution were transferred to each well of the assay plate. To define total and non-specific binding, wells containing 1% DMSO and 20 μM N-ethylcarboxamidoadenosine (Tocris Bioscience, Cat. No. 1691) respectively, were also included. The wells of the assay plate were incubated at room temperature for 60 minutes with agitation, then filtered using a FilterMate Harvester® (Perkin Elmer) or similar equipment through a UniFilter-96® PEI coated plate (Perkin Elmer Cat. No. 6005274 or 6005277). Filtering was achieved by aspirating the contents of the assay plate for 5 seconds, then washing and aspirating the contents three times with ice-cooled wash buffer (assay buffer supplemented with 0.0025% Brij58) and allowing the vacuum manifold to dry the plate for 30 seconds. The filter plate was incubated for at least 1 hour at 55° C. and allowed to dry. The bottom of the filter plate was then sealed with backing tape. 40 μL Ultima Gold™ (Perkin Elmer, Cat. No. 6013329) was added to each well of the filter plate and the top of the plate was sealed with TopSeal-A PLUS® clear plate seal (Perkin Elmer, Cat. No. 6050185). The plates were then incubated for at least 20 minutes, and then the amount of radioactivity remaining in each well was determined using a TopCount® (Perkin Elmer) scintillation counter. After normalization to total and non-specific binding, the percent effect at each compound concentration was calculated. The plot of percent effect versus the log of compound concentration was analyzed electronically using a 4-parameter logistic fit based on the Levenberg-Marquardt algorithm to generate IC50 values.

On to `Cc1c(-c2ncco2)nc(N)n2nc(C3CCN(c4cnn(CC(C)(C)O)c4)C3)nc12` (single isomer, unassigned) [Example 3.15-2, (R or S)-1-(4-(3-(5-amino-8-methyl-7-(oxazol-2-yl)-[1,2,4]triazolo[1,5-c]pyrimidin-2-yl)pyrrolidin-1-yl)-1H-pyrazol-1-yl)-2-methylpropan-2-ol], for which the IC50 in assay [1] amounted to 435 nM; in assay [2], 9090 nM.

Consider `Cc1c(-c2ncco2)nc(N)n2nc(C3CCN(CC(F)(F)F)C3)nc12` (racemic) [Example 9.1, (R and S)-8-methyl-7-(oxazol-2-yl)-2-(1-(2,2,2-trifluoroethyl)pyrrolidin-3-yl)-[1,2,4]triazolo[1,5-c]pyrimidin-5-amine], for which the IC50 in assay [1] was found to be 32.3 nM; in assay [2], 618 nM.

As to `Cc1cc(N2CCC[C@@H](c3nc4c(C)c(-c5ncco5)nc(N)n4n3)C2)cnc1OC(F)F` [Example 3.13, (R)-2-(1-(6-(difluoromethoxy)-5-methylpyridin-3-yl)piperidin-3-yl)-8-methyl-7-(oxazol-2-yl)-[1,2,4]triazolo[1,5-c]pyrimidin-5-amine], the results for the IC50 in assay [1] and in assay [2] were 1.6 nM and 149 nM, respectively.

For `Cc1c(-c2ncco2)nc(N)c2nc([C@H]3CCCN(c4cnn(C)c4)C3)nn12` (single isomer, unassigned) [Example 2.5-2], the results for the IC50 in assay [1] and in assay [2] were 37.3 nM and 7390 nM, respectively.

Take `Cc1c(-c2ncco2)nc(N)n2nc([C@@H]3CCCN(c4cnn(C(C)C(C)(C)O)c4)C3)nc12` (single isomer, unassigned) [Example 2.10, (R or S)-3-(4-((R)-3-(5-amino-8-methyl-7-(oxazol-2-yl)-[1,2,4]triazolo[1,5-c]pyrimidin-2-yl)piperidin-1-yl)-1H-pyrazol-1-yl)-2-methylbutan-2-ol]: the IC50 stood at 1.2 nM in assay [1] and 261 nM in assay [2].

Turning to `CCn1cc(N2CCC[C@@H](c3nc4c(C)c(-c5ncco5)nc(N)n4n3)C2)cn1` [Example 3.3, (R)-2-(1-(1-ethyl-1H-pyrazol-4-yl)piperidin-3-yl)-8-methyl-7-(oxazol-2-yl)-[1,2,4]triazolo[1,5-c]pyrimidin-5-amine], the IC50 in assay [1] turned out to be 0.9 nM; in assay [2] it was 155 nM.

Regarding `Cc1c(-c2cccc(F)c2)nc(N)c2nc(C3CCC(C)(O)C3)nn12` (single isomer, unassigned) [Example 8.8, (1R,3S and 1S,3R) or (1R,3R and 1S,3S)-3-(8-amino-6-(3-fluorophenyl)-5-methyl-[1,2,4]triazolo[1,5-a]pyrazin-2-yl)-1-methylcyclopentan-1-ol], the values for the IC50 in assay [1] and in assay [2] were 70.5 nM and 350 nM, respectively.

Take `CCn1cc(N2C[C@H](c3nc4c(C)c(-c5cccc(F)c5)nc(N)n4n3)CC[C@@H]2C)cn1` [Example 2.16, 2-((3R,6S)-1-(1-ethyl-1H-pyrazol-4-yl)-6-methylpiperidin-3-yl)-7-(3-fluorophenyl)-8-methyl-[1,2,4]triazolo[1,5-c]pyrimidin-5-amine]: the IC50 in assay [1] turned out to be 8.8 nM; in assay [2], 82.6 nM.

As to `Cc1c(-c2cccc(F)c2)nc(N)n2nc([C@@H]3CCCNC3)nc12` [Example 2.4, (R)-7-(3-fluorophenyl)-8-methyl-2-(piperidin-3-yl)-[1,2,4]triazolo[1,5-c]pyrimidin-5-amine], the figures for the IC50 in assay [1] and in assay [2] were 57.7 nM and 873 nM, respectively.

For `Cc1c(-c2ncco2)nc(N)c2nc(C3CCCC(C)(O)C3)nn12` (single isomer, unassigned) [Example 8.5, (1R,3S and 1S,3R) or (1R,3R and 1S,3S)-(8-amino-5-methyl-6-(oxazol-2-yl)-[1,2,4]triazolo[1,5-a]pyrazin-2-yl)-1-methylcyclohexan-1-ol], the IC50 in assay [1] was found to be 265 nM; in assay [2], 9140 nM.

As for `Cc1c(-c2ncco2)nc(N)n2nc([C@@H]3CC[C@H](C)N(c4cnn(CC(C)(C)O)c4)C3)nc12` [Example 2.12, 1-(4-((2S,5R)-5-(5-amino-8-methyl-7-(oxazol-2-yl)-[1,2,4]triazolo[1,5-c]pyrimidin-2-yl)-2-methylpiperidin-1-yl)-1H-pyrazol-1-yl)-2-methylpropan-2-ol], the IC50 in assay [1] is 1 nM; in assay [2], 19.8 nM.

Turning to `Cc1c(-c2ncco2)nc(N)n2nc(C3CCCC(C)(O)C3)nc12` (single isomer, unassigned) [Example 8.3-1, (1-R or S,3-R or S)-3-(5-amino-8-methyl-7-(oxazol-2-yl)-[1,2,4]triazolo[1,5-c]pyrimidin-2-yl)-1-methylcyclohexan-1-ol], the IC50 in assay [1] turned out to be 7.9 nM; in assay [2], 5560 nM.

In the case of `Cc1c(-c2ncco2)nc(N)n2nc(C3CCCC(C)(O)C3)nc12` (single isomer, unassigned) [Example 8.2-2, (1-R or S,3-R or S)-3-(5-amino-8-methyl-7-(oxazol-2-yl)-[1,2,4]triazolo[1,5-c]pyrimidin-2-yl)-1-methylcyclohexan-1-ol], the IC50 in assay [1] was 227 nM; in assay [2] it was 7310 nM.

For `Cc1c(-c2ncco2)nc(N)n2nc([C@@H]3CCCN(c4cnn(C(C)C(C)(C)O)c4)C3)nc12` (single isomer, unassigned) [Example 2.11, (S or R)-3-(4-((R)-3-(5-amino-8-methyl-7-(oxazol-2-yl)-[1,2,4]triazolo[1,5-c]pyrimidin-2-yl)piperidin-1-yl)-1H-pyrazol-1-yl)-2-methylbutan-2-ol], the IC50 amounted to 3.2 nM in assay [1] and 81.6 nM in assay [2].

Turning to `Cc1c(-c2cccc(F)c2)nc(N)n2nc([C@@H]3CCCN(c4cnn(CC(C)(C)O)c4)C3)nc12` [Example 3.11, (R)-1-(4-(3-(5-amino-7-(3-fluorophenyl)-8-methyl-[1,2,4]triazolo[1,5-c]pyrimidin-2-yl)piperidin-1-yl)-1H-pyrazol-1-yl)-2-methylpropan-2-ol], the results for the IC50 in assay [1] and in assay [2] were 29.2 nM and 542 nM, respectively.

With `Cc1c(-c2ncco2)nc(N)n2nc([C@@H]3CCCNC3)nc12` [Example 2.3, (R)-8-methyl-7-(oxazol-2-yl)-2-(piperidin-3-yl)-[1,2,4]triazolo[1,5-c]pyrimidin-5-amine], the IC50 in assay [1] stood at 20.5 nM; in assay [2], 1040 nM.

Consider `Cc1c(-c2ncco2)nc(N)n2nc([C@@H]3CCCN(c4cnn(CC(C)(C)O)c4)C3)nc12` [Example 3.7, (R)-1-(4-(3-(5-amino-8-methyl-7-(oxazol-2-yl)-[1,2,4]triazolo[1,5-c]pyrimidin-2-yl)piperidin-1-yl)-1H-pyrazol-1-yl)-2-methylpropan-2-ol], for which the IC50 in assay [1] was found to be 4.7 nM; in assay [2], 224 nM.

Regarding `Cc1c(-c2ncco2)nc(N)n2nc([C@@H]3CC[C@H](C)NC3)nc12` [Example 2.9, 8-methyl-2-((3R,6S)-6-methylpiperidin-3-yl)-7-(oxazol-2-yl)-[1,2,4]triazolo[1,5-c]pyrimidin-5-amine], the IC50 in assay [1] came to 129 nM; in assay [2], 2410 nM.

As for `Cc1c(-c2cccc(F)c2)nc(N)c2nc(C3CCC(C)(O)C3)nn12` (single isomer, unassigned) [Example 8.9, (1R,3S and 1S,3R) or (1R,3R and 1S,3S)-3-(8-amino-6-(3-fluorophenyl)-5-methyl-[1,2,4]triazolo[1,5-a]pyrazin-2-yl)-1-methylcyclopentan-1-ol], the figures for the IC50 in assay [1] and in assay [2] were 357 nM and 2090 nM, respectively.
